{"source": "paper PMC12636026", "about": "(Journal of the American Chemical Society, 2025)", "key": {"[1]": {"details": "Zn(II)/phosphate challenge, relaxivity, 2.5 mM complex and 2.5 mM Zn(II); ref Laurent et al.; cited from earlier work", "from_the_text": "The stability of MRI contrast agents is often benchmarked by the “ratio index”, defined as the time for the relaxation value to drop to 80% of its initial value under Zn(II)/phosphate challenge. […] Laurent et al. monitored complex integrity using relaxivity under equimolar condi ..."}, "[2]": {"details": "clinical agent; ref citation number not given; cited from earlier work", "from_the_text": "These findings advance our understanding of ligand suitability in MRI contrast agent design and illustrate the potential of metallo-coiled coils to surpass the performance limits of traditional inorganic complexes. By exploiting the modular natur ..."}, "trypsin": {"tested_on": "trypsin", "experiment": "12 µM trypsin (bovine pancreas) in 100 mM HEPES buffer pH 7.5", "details": "37°C, up to 48 h"}, "[3]": {"experiment": "Native mass spectrometry metalation", "type": "binding", "details": "10 μM trimer : 10 μM metal, 50 mM ammonium acetate pH 6.8, room temperature, 60 min", "from_the_text": "This preserves noncovalent interactions enabling coiled coil complexes to be detected. […] (C) Representative full Tb(III) emission spectra for each titration point. λex = 280 nm. […] Error bars determined from standard deviation error of three independent repeat experiments. […] page 4: […] Upon successful purification, removal of Tb(III) was confirmed on a small aliquot of cross-linked peptide by fluorescence spectroscopy. Here the absence of enhanced/sensitized Tb(III) emission, at 545 nm, is consistent with complete […] Stock solutions preparation: In all experiments, the concentration of peptide stock […] Once samples were prepared, the concentration of the solutions were checked by UV vis and adjust if necessary. All GdCl3 and TbCl3 stock solutions were freshly […] solutions were also freshly prepared and determined in a similar fashion using EDTA and xylenol orange indicator solution.6 The equivalence of metal added was then adjust to the exact concentration of peptide in the sample. […] in volumetric glassware using MilliQ water. Native mass spectrometry (MS): […] ammonium acetate pH 6.8. The concentrations of the peptides were measured using the […] Metal stock solutions were initially prepared by […] These stock solutions were then […] […] The observed molecular weights were calculated from an average of 3 charge states. […]"}, "[4]": {"experiment": "Kinetics of Tb(III) binding and coiled coil folding (CD 222 nm / Tb emission 545 nm)", "type": "physicochemical", "details": "0.1, 1.0 and 10 μM, 10 mM HEPES pH 7.0, 1.0 equiv TbCl3"}, "CD thermal unfolding": {"experiment": "CD thermal unfolding", "type": "physicochemical", "details": "apo, 10 μM, 10 mM HEPES pH 7.0, CD 222 nm", "description": "2 (A) CD spectra of 0.1 μM and (B) 10 μM KH2-20X and MB1-2 trimers in the absence (apo; KH2-20X, orange; MB1-2, blue) and presence (holo; KH2-20X + TbCl3, red; MB1-2 + TbCl3, turquoise) of 1.0 equiv of TbCl3, recorded at 293 K. (C) CD thermal unfolding profiles of 10 μM trimers monitoring the molar ellipticity at 222 nm: apo MB1-2 (blue), Tb(MB1-2)3 (turquoise), apo KH2-20X (orange), and Tb(KH2-20X) (red). Solid lines indicate forward heating, and dotted lines indicate reverse cooling. All experiments were conducted in HEPES buffer at pH 7.0, with buffer concentrations adjusted to match peptide concentration (0.1 and 10.0 mM for 0.1 and 10.0 μM peptide, respectively). […]\n10 µM peptide in 10 mM HEPES, 0.1 mM TbCl₃ into 1 µM peptide in 1 mM HEPES, and 0.01 mM TbCl₃ into 0.1 µM peptide in 0.1 mM HEPES (all at pH 7.0). […] The observed ellipticity was then converted into molar ellipticity, where the helical content was calculated as the percentage folded, based on the theoretical maximum ellipticity at 222 nm as reported by Scholtz et al.9 Thermal unfolding data was recorded by monitoring the ellipticity at 222 nm of a 10 μM trimer concentration of MB1-2 and KH2-20X solution in 10 mM HEPES buffer (pH 7.0) in the absence and presence of 10 μM TbCl3, using a Jasco Peltier Type MPTC-513 temperature controller ramping from 20 °C to 85 °C in 0.1°C increments, heating at 1 °C/min. […]"}, "[5]": {"experiment": "Circular dichroism folding (% folded from ellipticity at 222 nm)", "type": "physicochemical", "details": "CD 222 nm, no metal, 10 mM HEPES pH 7.0, 293 K, triplicate"}, "[6]": {"tested_on": "T1, trypsin (bovine pancreas)", "T1 construct": "from tissue; host or cells: bovine pancreas", "experiment": "in vitro", "type": "in vitro ADME", "details": "isolated enzyme trypsin, 100 µM, 12 μM trypsin, 100 mM HEPES pH 7.5, 37 °C, HPLC, trimers lacking C-terminal G-NH2 or Ac-G IAAIEQK counted", "description": "(§1) page 8: determined as reported periously10 at the data was fitted to the Hills equation using MatLab.11 Stability Studies: Zinc transmetallation experiments: Emission spectra of Tb(III) were recorded for 1.0 µM […] Zinc chloride (ZnCl₂) was then added to each cuvette to give a final concentration of 125 µM Zn(II), and the fluorescence emission spectra were subsequently collected over time. The Tb(III) emission for each sample was normalized to the integrated intensity of the 545 nm emission peak from the initial spectrum. Phosphate and HEPES: Emission spectra of Tb(III) were recorded for 1.0 µM solutions of […] Phosphate buffer prepared from a mixture of sodium monobasic and tribasic phosphate salts (to give a stock concentration of 100 mM at pH 7.0) […] Fluorescence emission spectra were subsequently collected over time. The Tb(III) emission for each sample was normalized to the integrated intensity of the 545 nm emission peak from the initial spectrum. A control was carried out using the same methodology, this time monitoring the change in Tb emission upon the addition of HEPES buffer instead of phosphate. Protease experiments: A trypsin (bovine pancreas) stock solution was prepared (1.5 mg/mL) by dissolving in 100 mM HEPES at pH 7.5. The peptide stock solution was prepared by dissolving the lyophilized peptide in the same buffer solution, and the concentration determined as reported previously. In the case when the peptide was metalated, samples were left to equilibrate with the metal upon addition for around 60 min. prior to the addition of the trypsin. Samples were left to incubate in a water bath at 37°C. At specific time points, 35 µl of each sample were taken and quenched with 35 µl of 4% TFA solution. […] Individual peaks from the HPLC were collected and then analyzed by ESI mass spectrometry in positive mode. Samples were ionised using nanoelectrospray ionisation (TriVersa NanoMate, Advion Interchim Scientific, […] 8 page 27: Figure S14: […] Figure S14: […] pancreas) and 100 mM HEPES buffered at pH 7.5. […] monitored. 27 (1 picture or pasted object on this page, not shown here) page 28: Figure S15: […] Figure S15: […] pancreas) and 100 mM HEPES buffered at pH 7.5. […] monitored. 28 (1 picture or pasted object on this page, not shown here)"}, "[7]": {"biological_target": "T2, trypsin (bovine pancreas) (Bos taurus, UniProt P00760)", "T2 construct": "from tissue; host or cells: bovine pancreas", "T2 sequence (P00760 24-246)": "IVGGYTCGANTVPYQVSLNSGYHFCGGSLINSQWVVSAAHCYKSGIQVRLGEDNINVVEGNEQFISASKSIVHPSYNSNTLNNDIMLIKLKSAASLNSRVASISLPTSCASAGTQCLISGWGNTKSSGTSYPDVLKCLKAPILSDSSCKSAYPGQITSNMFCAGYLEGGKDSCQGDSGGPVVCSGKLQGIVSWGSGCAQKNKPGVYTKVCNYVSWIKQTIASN", "experiment": "in vitro", "type": "in vitro ADME", "details": "100 µM, 12 μM trypsin, 100 mM HEPES pH 7.5, 37 °C, HPLC", "description": "as §1"}}, "note": "Entries after “also recorded” stand apart in the source; their conditions may differ. Bridges are numbered along the chain shown (N, C = ends). Roman numbers before positions name the chains, in order."}
{"compound": "CNC[C@H](O)[C@@H](O)[C@H](O)[C@H](O)CO.O=C([O-])CN1CCN(CC(=O)[O-])CCN(CC(=O)O)CCN(CC(=O)[O-])CC1.[Gd+3]", "note": "[Dotarem]", "values": [{"measurement": "ratio index (time for relaxation value to drop to 80% of initial value)", "setting": "[1]", "result": "exceeds 5000 min"}]}
{"compound": "O=C([O-])CN1CCN(CC(=O)[O-])CCN(CC(=O)[O-])CCN(CC(=O)[O-])CC1.[Gd+3]", "note": "[Gd-DOTA]", "values": [{"measurement": "r 1 relaxivity at 1.5 T", "setting": "[2]", "result": 4.3, "unit": "mM^–1 s^–1"}, {"measurement": "r 2 relaxivity at 1.5 T", "setting": "[2]", "result": 5.7, "unit": "mM^–1 s^–1"}]}
{"compound": "CNC[C@H](O)[C@@H](O)[C@H](O)[C@H](O)CO.CNC[C@H](O)[C@@H](O)[C@H](O)[C@H](O)CO.O=C([O-])CN(CCN(CC(=O)[O-])CC(=O)O)CCN(CC(=O)[O-])CC(=O)O.[Gd+3]", "note": "[Magnevist]", "values": [{"measurement": "ratio index (time for relaxation value to drop to 80% of initial value)", "setting": "[1]", "result": "~250", "unit": "min"}]}
{"compound": "Ac-G IAAIEQK IAANEWK DAAIEQK IAAIEQK IAAIEQK G-NH2 [MB1-2]", "values": [{"measurement": "cleaved bond", "setting": "trypsin", "result": "Lys-I, within 30 min; also recorded: Lys15-D, within 30 min; also recorded: Lys-G, within 30 min"}]}
{"compound": "Ac-G IAAIEQK IAANEWK DAAIEQK IAAIEQK IAAIEQK G-NH2 [Tb(MB1-2)3]", "values": [{"measurement": "cleaved bond", "setting": "trypsin", "result": "Lys-G, major"}]}
{"compound": "Ac-G IAAIEQK IAANEWK DAAIXQK IAAIEQK IAAIEQK G-NH2 [KH2-20X]", "values": [{"measurement": "cleaved bond", "setting": "trypsin", "result": "Lys-G, major, 30 min; also recorded: Lys-I, 30 min"}, {"measurement": "fragment found", "setting": "trypsin", "result": "trimeric cross-linked IAANEWK DAAIEQK (peak 5), 30 min"}, {"measurement": "not cleaved", "setting": "trypsin", "result": "uncleaved IAANEWK DAAIEQK stretch; individual IAANEWK and DAAIEQK fragments absent"}]}
{"compound": "Ac-G IAAIEQK IAANEWK DAAIXQK IAAIEQK IAAIEQK G-NH2 [Tb(KH2-20X)]", "values": [{"measurement": "cleaved bond", "setting": "trypsin", "result": "Lys-G, major; also recorded: Lys-I"}]}
{"compound": "I: Ac-GIAAIEQKIAANEWKDAAIEQKIAAIEQKIAAIEQKG-NH2 / II: Ac-GIAAIEQKIAANEWKDAAIEQKIAAIEQKIAAIEQKG-NH2 / III: Ac-GIAAIEQKIAANEWKDAAIEQKIAAIEQKIAAIEQKG-NH2 (amide I:15-II:20, I:20-III:15, II:15-III:20) [KH2-20X]", "values": [{"measurement": "% metalation by native mass spectrometry", "setting": "[3]", "result": "95–100%"}, {"measurement": "rate of Tb(III) binding (sensitized emission 545 nm)", "setting": "[4]", "result": "rapid across all tested concentrations"}, {"measurement": "folding over the temperature range 20-85 °C", "setting": "CD thermal unfolding", "result": "remain well-folded throughout the entire temperature range"}, {"measurement": "% apo folding (10.0 μM trimer)", "setting": "[5]", "result": "96 ± 3", "unit": "%"}, {"measurement": "remaining at 0.5 h", "setting": "[6]; read-out: % remaining intact as trimers after 30 min trypsin, apo", "result": "~74", "unit": "%"}, {"measurement": "remaining at 6 h", "setting": "[6]; read-out: % remaining intact as trimers after 6 h trypsin, apo", "result": "~45", "unit": "%"}, {"measurement": "abundance of trimeric cross-linked IAANEWK DAAIEQK fragment at 30 min, apo", "setting": "[7]", "result": 5, "unit": "%"}, {"measurement": "abundance of trimeric cross-linked IAANEWK DAAIEQK fragment at 6 h, apo", "setting": "[7]", "result": 20, "unit": "%"}]}
